Data: patent publication US7777070B2, “Acyloxyalkyl carbamate prodrugs of tranexamic acid, methods of synthesis and use” (XenoPort, Inc., priority 2005, dated 2010)
Where two headings read alike, the source gives them in different places.

How the values were obtained:
[1] = tested on: Caco-2 cells; assay: Caco-2 cellular permeability; settings: ratio of Papp apical to basolateral / basolateral to apical
Experimental: (§1) For example, passive permeability can be evaluated by examining the flux of a prodrug across a cultured polarized cell monolayer (e.g., Caco-2 cells).
(§2) Caco-2 cells obtained from continuous culture (passage less than 28) were seeded at high density onto Transwell polycarbonate filters. Cells were maintained with DMEM/10% fetal bovine serum, 1 mM nonessential amino acids, and 6 mM L-Gln, 5% CO2/95% O2, at 37° C. until the day of the experiment. Permeability studies were conducted at pH 6.5 apically (in 50 mM MES buffer containing 1 mM CaCl2, 1 mM MgCl2, 150 mM NaCl, 3 mM KCl, 1 mM NaH2PO4, 5 mM glucose) and pH 7.4 basolaterally (in Hanks' balanced salt solution containing 10 mM HEPES) in the presence of efflux pump inhibitors (250 μM MK-571 and 250 μM Verapamil). Inserts were placed in 12 or 24 well plates containing buffer and incubated for 30 min at 37° C. Prodrug (200 μM) was added to the apical or basolateral compartment (donor) and concentrations of prodrug and/or released parent drug in the opposite compartment (receiver) were determined at intervals over 1 hour using LC/MS/MS. Values of apparent permeability (Papp) were calculated using the equation: Papp=Vr(dC/dt)//(ACo) where Vr is the volume of the receiver compartment in mL; dC/dt is the total flux of prodrug and parent drug (μM/sec), determined from the slope of the plot of concentration in the receiver compartment versus time; C0 is the initial concentration of prodrug in μM; and A is the surface area of the membrane in cm^2.

[2] = cited from earlier work
[3] = cited from earlier work; remark: listed apart in the source
[4] = Pharmacokinetics of tranexamic acid after administration of tranexamic acid or prodrug to rats; assay type: in vivo, Sprague-Dawley rats; settings: for AUC(0-inf) / bioavailability / Cmax / half-life / Tmax / AUC(0-t) / F* (bioavailability of tranexamic acid) / AUCinf / AUCt / T1/2-λ: rat; for bioavailability / F* (bioavailability of tranexamic acid): versus i.v. tranexamic acid AUCinf 22.2 hr·μg/mL; for bioavailability: read-out: F* (bioavailability of tranexamic acid); for half-life: read-out: T1/2-λ (converted)
Experimental: Tranexamic acid or a tranexamic acid prodrug of the present disclosure was administered as an intravenous bolus injection (i.v.), by oral gavage (p.o.), or by intracolonic (i.c.) administration via an indwelling catheter in the ascending colon to groups of four to six adult male Sprague-Dawley rats (weight approximately 250 g). Animals were fasted overnight before the study and for 4 hours post-dosing and were conscious at the time of the experiment. When administered intravenously, tranexamic acid was administered as a solution in water at a dose equivalent to 16 mg (0.1 mmol) of tranexamic acid per kg body weight. Prodrugs were orally or intracolonically administered as a suspension in 0.5% methyl cellulose in 0.1% Tween 80 at a dose equivalent to 16 mg (0.1 mmol) of tranexamic acid per kg body weight. Blood samples (300 μL) were obtained via a jugular vein cannula at intervals over 8 hours after oral dosing. Blood was quenched immediately using methanol and then was frozen at −80° C. until analyzed.
The following procedure was used to prepared blood samples for analysis:
1. Rat blood (100 μL) was collected at different times into K2EDTA tubes, 300 μL of methanol, and the mixture was vortexed to mix the ingredients.
2. Blank rat blood (90 μL) was quenched with 300 μL of methanol. Then ten μL of a standard stock solution (0.04, 0.2, 1, 5, 25, and 100 μg/mL) were added to the tube individually. Then 20 μL of p-chlorophenylalanine (5 μg/mL in 50% methanol) was added to each tube to make up a final calibration standard (0.004, 0.02, 0.1, 0.5, 2.5, and 10 μg/mL). The samples were vortexed and centrifuged at 14,000 rpm for 20 min.
3. To the quenched blood samples were added 20 μL of p-chlorophenylalanine (5 μg/mL in 50% methanol), the samples were vortexed and centrifuged at 14,000 rpm for 20 min.
4. The supernatant was analyzed by LC/MS/MS.
The following method was used for LC/MS/MS Analysis of the prepared blood samples. An API 4000 or 2000 LC/MS/MS spectrometer equipped with Agilent 1100 binary pumps and a CTC HTS-PAL autosampler were used in the analysis. A ThermoHypersil-BetaSil C18, 100×4.6 mm, 5 μm column was used during the analysis. The mobile phase for the analysis of tranexamic acid and prodrug was (A) 0.1% formic acid in water, and (B) 0.1% formic acid in acetonitrile. The gradient condition was: 2% eluent-B to 95% eluent-B for 2.5 min, then to 98% eluent-B to 4.0 min. At 4.1 min, it was returned to 2% eluent-B and maintained at 2% eluent-B till 6.0 min. The flow rate was 1 mL/min. An ESI source was used on the API 4000. The analysis of tranexamic acid was performed in positive ion mode for and negative ion mode was used for analysis of tranexamic acid prodrugs.
The MRM transition for each analyte was optimized using standard solutions. 20 μL of the sample was injected. Non-compartmental analysis was performed using WinNonlin (v.3.1 Professional Version, Pharsight Corporation, Mountain View, Calif.) on individual animal profiles. Summary statistics on major parameter estimates was performed for Cmax (peak observed concentration following dosing), Tmax (time to maximum concentration is the time at which the peak concentration was observed), AUC(0-t) (area under the serum concentration-time curve from time zero to last collection time, estimated using the log-linear trapezoidal method), AUC(0-∞), (area under the serum concentration time curve from time zero to infinity, estimated using the log-linear trapezoidal method to the last collection time with extrapolation to infinity), and t1/2 (terminal half-life).
The oral or intracolonic bioavailability (F) of tranexamic acid was determined by comparing the area under the tranexamic acid concentration vs. time curve (AUC) following oral or intracolonic administration of tranexamic acid or prodrug with the AUC of the tranexamic acid concentration vs. time curve following intravenous administration of tranexamic acid on a dose normalized basis. […]

[5] = tested on: Caco-2 cells
Experimental: as §1, §2

[6] = male, Sprague-Dawley, whole blood, po, tranexamic acid in blood, dose equivalent to 16 mg/kg, mean (SD)
[7] = male, Sprague-Dawley, whole blood, tranexamic acid in blood, i.c., dose equivalent to 16 mg/kg, mean (SD)
[8] = tranexamic acid in blood, i.c., dose equivalent to 16 mg/kg, mean (SD)
[9] = tranexamic acid in blood, p.o., dose equivalent to 16 mg/kg, mean (SD)

## CCCC(=O)OC(C)OC(=O)NC[C@H]1CC[C@H](C(=O)O)CC1 (relative stereo) [Compound 10, trans-4-{[1-(Butanoyloxy)ethoxycarbonyl]aminomethyl}-Cyclohexanecarboxylic Acid]
[1]
  Ratio A-B/B-A: 4.9

## CCCC(OC(=O)NC[C@H]1CC[C@H](C(=O)O)CC1)OC(=O)C(C)C (relative stereo) [Compound 36, trans-4-{[1-(2-Methylpropanoyloxy)butoxycarbonyl]aminomethyl}-Cyclohexanecarboxylic Acid]
[1]
  Ratio A-B/B-A: 4.5

## CCCCC(=O)OC(OC(=O)NC[C@H]1CC[C@H](C(=O)O)CC1)C(C)C (relative stereo) [Compound 42, trans-4-{[1-(Pentanoyloxy)-2-methylpropoxycarbonyl]aminomethyl}-Cyclohexanecarboxylic Acid]
[1]
  Ratio A-B/B-A: 2.9

## CC(C)C(OC(=O)NC[C@H]1CC[C@H](C(=O)O)CC1)OC(=O)C1CCCCC1 (relative stereo) [Compound 48, trans-4-{[1-(Cyclohexylcarbonyloxy)-2-methylpropoxycarbonyl]aminomethyl}-Cyclohexanecarboxylic Acid]
[1]
  Ratio A-B/B-A: 3.1

## CC(C)C(OC(=O)NC[C@H]1CC[C@H](C(=O)O)CC1)OC(=O)c1ccccc1 (relative stereo) [Compound 49, trans-4-{[1-(Benzoyloxy)-2-methylpropoxycarbonyl]aminomethyl}-Cyclohexanecarboxylic Acid]
[1]
  Ratio A-B/B-A: 2.9

## CCOC(=O)OC(C)OC(=O)[C@H]1CC[C@H](CN)CC1 (relative stereo) [Kabi 2161, 1-(ethoxycarbonyl)oxyethyl trans-4-(aminomethyl)-cyclohexanecarboxylate]
[2]; women suffering from idiopathic menorrhagia
  effect on menstrual blood loss: effective in reducing menstrual blood loss
[3]; human patients, oral
  oral bioavailability of tranexamic acid from prodrug: markedly improved

## CC(C)CC(=O)OC(C)OC(=O)NC[C@H]1CC[C@H](C(=O)O)CC1 (single isomer, unassigned) [Compound 19, trans-4-{[1-(3-Methylbutanoyloxy)ethoxycarbonyl]aminomethyl}-Cyclohexanecarboxylic Acid]
[1]
  Ratio A-B/B-A: 5.2

## CC(OC(=O)NC[C@H]1CC[C@H](C(=O)O)CC1)OC(=O)c1ccccc1 (single isomer, unassigned) [Compound 23, trans-4-{[1-(Benzoyloxy)ethoxycarbonyl]aminomethyl}-Cyclohexanecarboxylic Acid]
[1]
  Ratio A-B/B-A: 4.5

## CC(C)C(=O)OC(OC(=O)NC[C@H]1CC[C@H](C(=O)O)CC1)C(C)C (single isomer, unassigned) [Compound 44, trans-4-{[1-(2-Methylpropanoyloxy)-2-methylpropoxycarbonyl]aminomethyl}-Cyclohexanecarboxylic Acid]
[1]
  Ratio A-B/B-A: 2.2

## NC[C@H]1CC[C@H](C(=O)O)CC1 [Compound 1, trans-4-(aminomethyl)-cyclohexanecarboxylic acid, reference compound]
[2]; women with menorrhagia
  reduction of menstrual blood loss: ~50%
[1]
  Ratio A-B/B-A: 1.3
[4]; male, Sprague-Dawley, whole blood, iv, intravenously administered tranexamic acid, 16 mg/kg
  AUC(0-inf): 22200 ng·h/mL
[4]; male, Sprague-Dawley, whole blood, other: intracolonic, 16 mg/kg, i.c., mean (SD)
  bioavailability: 5%
[4]; male, Sprague-Dawley, whole blood, po, 16 mg/kg, p.o., mean (SD)
  bioavailability: 37%
[4]; male, Sprague-Dawley, whole blood, po, tranexamic acid in blood, p.o., dose equivalent to 16 mg tranexamic acid per kg, mean (SD), read-out: Cmax
  Cmax: 2060 ng/mL
[4]; male, Sprague-Dawley, whole blood, po, tranexamic acid in blood, p.o., dose equivalent to 16 mg/kg, mean (SD)
  half-life: 1.9 h
[4]; male, Sprague-Dawley, whole blood, po, tranexamic acid in blood, p.o., dose equivalent to 16 mg/kg, mean (SD), read-out: Tmax
  Tmax: 1.1 h
[4]; [6]
  AUC(0-inf): 7800 ng·h/mL
  AUC(0-t): 7300 ng·h/mL
[4]; male, Sprague-Dawley, whole blood, tranexamic acid in blood, i.c. (intracolonic), dose equivalent to 16 mg/kg, mean (SD), read-out: Cmax
  Cmax: 220 ng/mL
[4]; [7]
  AUC(0-inf): 800 ng·h/mL
  AUC(0-t): 600 ng·h/mL
  half-life: 1.7 h
[4]; male, Sprague-Dawley, whole blood, tranexamic acid in blood, i.c., dose equivalent to 16 mg/kg, mean (SD), read-out: Tmax
  Tmax: 3.1 h
[3]; rectal administration in humans (Almer et al.)
  absorption following rectal administration: poorly absorbed
[3]; tranexamic acid, oral
  oral bioavailability: ~30%
[3]; tranexamic acid
  terminal elimination half-life: ~2 h

## CC(C)C(=O)OCOC(=O)NC[C@H]1CC[C@H](C(=O)O)CC1 [Compound 4, trans-4-{[(2-Methylpropanoyloxy)methoxycarbonyl]aminomethyl}-Cyclohexanecarboxylic Acid]
[1]
  Ratio A-B/B-A: 7.7

## O=C(NC[C@H]1CC[C@H](C(=O)O)CC1)OCOC(=O)c1ccccc1 [Compound 7, trans-4-{[(Benzoyloxy)methoxycarbonyl]aminomethyl}-Cyclohexanecarboxylic Acid]
[1]
  Ratio A-B/B-A: 4.2

## CC(OC(=O)NC[C@H]1CC[C@H](C(=O)O)CC1)OC(=O)C(C)C (stereo partly drawn) [Compound 13, trans-4-{[1-(2-Methylpropanoyloxy)ethoxycarbonyl]-aminomethyl}-Cyclohexanecarboxylic Acid]
[1]
  Ratio A-B/B-A: 4.8
[4]; i.c., mean (SD)
  F* (bioavailability of tranexamic acid): 98 (10) %
[4]; intact prodrug in blood, oral gavage, rat (FIG. 2)
  levels of prodrug following oral gavage administration: below the level of detection
[4]; p.o., mean (SD)
  F* (bioavailability of tranexamic acid): 73 (9) %
[4]; tranexamic acid in blood, i.c. (intracolonic), dose equivalent to 16 mg/kg, mean (SD)
  Cmax: 7.82 (5.2) μg/mL
[4]; [8]
  AUCinf: 21.8 µg·h/mL
  AUCt: 21.5 (2.3) hr · μg/mL
  T1/2-λ: 4.2 (0.8) h
  Tmax: 0.5 (0.1) h
[4]; tranexamic acid in blood, p.o., dose equivalent to 16 mg tranexamic acid per kg, mean (SD)
  Cmax: 5.64 (0.58) μg/mL
[4]; [9]
  AUCinf: 17.1 (2.0) hr · μg/mL
  AUCt: 15.7 (2.0) hr · μg/mL
  T1/2-λ: 2.2 (0.2) h
  Tmax: 0.8 (0.3) h

## CC(OC(=O)NC[C@H]1CC[C@H](C(=O)[O-])CC1)OC(=O)C(C)C.[Na+] (stereo partly drawn) [Compound 14, Sodium trans-4-{[1-(2-Methylpropanoyloxy)ethoxycarbonyl]-aminomethyl}-Cyclohexanecarboxylate]
[5]
  Ratio A-B/B-A: 3.4

## CC(C)C(=O)O[C@H](C)OC(=O)NC[C@H]1CC[C@H](C(=O)O)CC1 [Compound 15, (+)-trans-4-({[(S)-1-(2-Methylpropanoyloxy)ethoxy]carbonylamino}methyl)-Cyclohexanecarboxylic Acid]
[1]
  Ratio A-B/B-A: 6.1

## CC(C)C(=O)O[C@@H](C)OC(=O)NC[C@H]1CC[C@H](C(=O)O)CC1 [Compound 17, (−)-trans-4-({[(1R)-1-(2-Methylpropanoyloxy)ethoxy]carbonylamino}methyl)-Cyclohexanecarboxylic Acid]
[1]
  Ratio A-B/B-A: 4.0
